Key:
[1] = Inhibition of Hepatitis C virus NS3/4A protease using Ac-Asp-Glu-Dap (QXLTM520)-Glu-Glu-Abu-COO-Ala-Ser-Cys(5-FAMsp)-NH2 as substrate after 30 mins by fluorometric assay; design: species or system Hepacivirus hominis
[2] = target: Trypsin (Homo sapiens, UniProt P07477+P07478+P35030); assay: Inhibition of human trypsin using hilyte fuor 488-labeled casein as substrate after 30 mins by green protease fluorometric assay; type: protein assay

Compound | IC50 [1] | IC50 [2]
CC(=O)OC/C=C(\C)CC/C=C(\C)C(=O)OC/C=C(\C)CC/C=C(\C)C(=O)O | > 200 µM | –
C/C(=C\CO)CC/C=C(\C)C(=O)OC/C=C(\C)CC/C=C(\C)C(=O)O | 126 µM | > 200 µM
C[C@]1(O[C@@H]2O[C@H](COC(=O)/C=C/c3ccccc3)[C@@H](O)[C@H](O)[C@H]2O)CC[C@@H]2C(C(=O)O)=CO[C@@H](O[C@@H]3O[C@H](COC(=O)/C=C/c4ccccc4)[C@@H](O)[C@H](O)[C@H]3O)[C@@H]21 | 125 µM | > 200 µM

Now those with a lower IC50 [1], led by results:

IC50 [1] | IC50 [2] | Compound
109 µM | > 200 µM | C[C@]1(OC(=O)/C=C/c2ccccc2)CC[C@@H]2C(C(=O)O)=CO[C@@H](O[C@@H]3O[C@H](CO)[C@@H](O)[C@H](O)[C@H]3O)[C@@H]21
100 µM | > 200 µM | C[C@]1(O)CC[C@@H]2C(C(=O)O)=CO[C@@H](O[C@@H]3O[C@H](COC(=O)/C=C/c4ccccc4)[C@@H](O)[C@H](O)[C@H]3O)[C@@H]21

Source: ChEMBL document CHEMBL1781925, “HCV-NS3/4A protease inhibitory iridoid glucosides and dimeric foliamenthoic acid derivatives from Anarrhinum orientale” (J Nat Prod, 2011)
